From PubChem BioAssay (NCI)
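Protocol summary: plate cells (96-well), add compound at 5 concentrations, incubate 48 h, interpolate endpoints linearly. TGI marks complete inhibition of growth.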

Experiments:
Assay in all cases: DTP human tumour cell line panel, 48 h
786-0 renal = test system: 786-0 renal
A498 renal = test system: A498 renal
A549 NSCLC = test system: A549 NSCLC
ACHN renal = test system: ACHN renal
BT-549 breast = test system: BT-549 breast
CAKI-1 renal = test system: CAKI-1 renal
CCRF-CEM leukemia = test system: CCRF-CEM leukemia
COLO 205 colon = test system: COLO 205 colon
DU-145 prostate = test system: DU-145 prostate
EKVX NSCLC = test system: EKVX NSCLC
HCC-2998 colon = test system: HCC-2998 colon
HCT-116 colon = test system: HCT-116 colon
HCT-15 colon = test system: HCT-15 colon
HL-60(TB) leukemia = test system: HL-60(TB) leukemia
HOP-92 NSCLC = test system: HOP-92 NSCLC
IGROV1 ovarian = test system: IGROV1 ovarian
K-562 leukemia = test system: K-562 leukemia
KM12 colon = test system: KM12 colon
LOX IMVI melanoma = test system: LOX IMVI melanoma
M14 melanoma = test system: M14 melanoma
MALME-3M melanoma = test system: MALME-3M melanoma
MCF7 breast = test system: MCF7 breast
MDA-MB-231 breast = test system: MDA-MB-231 breast
MDA-MB-435 = test system: MDA-MB-435
MDA-N = test system: MDA-N
MOLT-4 leukemia = test system: MOLT-4 leukemia
NCI-H226 lung = test system: NCI-H226 lung
NCI-H23 lung = test system: NCI-H23 lung
NCI-H460 lung = test system: NCI-H460 lung
NCI-H522 lung = test system: NCI-H522 lung
NCI/ADR-RES ovarian = test system: NCI/ADR-RES ovarian
OVCAR-3 ovarian = test system: OVCAR-3 ovarian
OVCAR-4 ovarian = test system: OVCAR-4 ovarian
OVCAR-5 ovarian = test system: OVCAR-5 ovarian
OVCAR-8 ovarian = test system: OVCAR-8 ovarian
PC-3 prostate = test system: PC-3 prostate
RPMI-8226 leukemia = test system: RPMI-8226 leukemia
RXF 393 renal = test system: RXF 393 renal
SF-295 CNS = test system: SF-295 CNS
SF-539 CNS = test system: SF-539 CNS
SK-MEL-2 melanoma = test system: SK-MEL-2 melanoma
SK-MEL-28 melanoma = test system: SK-MEL-28 melanoma
SK-MEL-5 melanoma = test system: SK-MEL-5 melanoma
SK-OV-3 ovarian = test system: SK-OV-3 ovarian
SN12C renal = test system: SN12C renal
SNB-19 CNS = test system: SNB-19 CNS
SNB-75 CNS = test system: SNB-75 CNS
SR leukemia = test system: SR leukemia
SW-620 colon = test system: SW-620 colon
TK-10 renal = test system: TK-10 renal
U251 CNS = test system: U251 CNS
UACC-257 melanoma = test system: UACC-257 melanoma
UACC-62 melanoma = test system: UACC-62 melanoma
UO-31 renal = test system: UO-31 renal
HS 578T breast = test system: HS 578T breast
HT29 colon = test system: HT29 colon
SF-268 CNS = test system: SF-268 CNS
T-47D breast = test system: T-47D breast

Measured: TGI

CC1(C)OC(CCO)CN1C(=O)OCc1ccccc1 (centres undefined)
not listed: HS 578T breast | HT29 colon | SF-268 CNS | T-47D breast
> 100 µM: all other assays above

Cc1ccsc1C(=S)Nc1ccc(Cl)c(C(=O)OC(C(C)C)C(C)C)c1
61.3 µM: HOP-92 NSCLC
63.1 µM: MDA-MB-435
33 µM: SK-MEL-5 melanoma
55.6 µM: MOLT-4 leukemia
59.8 µM: CAKI-1 renal
33.5 µM: OVCAR-3 ovarian
61.4 µM: BT-549 breast
55.3 µM: LOX IMVI melanoma
26.1 µM: COLO 205 colon
97.1 µM: U251 CNS
61.8 µM: PC-3 prostate
45.1 µM: RPMI-8226 leukemia
71.3 µM: MDA-MB-231 breast
31.5 µM: HL-60(TB) leukemia
91.7 µM: SNB-19 CNS
98.8 µM: SW-620 colon
71.6 µM: HT29 colon
95.3 µM: SNB-75 CNS
75.5 µM: HCT-116 colon
25.8 µM: SK-MEL-2 melanoma
81.8 µM: NCI-H522 lung
not listed: MALME-3M melanoma | RXF 393 renal | SR leukemia
> 100 µM: all other assays above
